“Also recorded” adds a separate entry of the source.
Each compound was assayed against T1, TYK2 (Homo sapiens, UniProt P29597) (assay: TYK2 degradation in MOLT-4 cells (Western blot, TYK2 level relative to DMSO-treated cells)). Details: 24 hour treatment, PROTAC 1 plus pomalidomide (competing for CRBN binding).
T1 construct: MOLT-4 cells (ATCC CRL-1582) were acquired from ATCC and maintained in RPMI-1640 medium; host or cells: MOLT-4 cells
Assay type: cell-based
Method: With reference to FIGS. 2A-2B. MOLT-4 cells (ATCC CRL-1582) were acquired from ATCC and maintained in RPMI-1640 medium supplemented with 10% fetal bovine serum (ATCC 30-2020), the combination henceforth referred to as “media”. Cells were maintained according to ATCC, (see product sheet), including incubation at 37° C. with 5% C02 in air other than during brief manipulations in a cell culture hood or during centrifugation.
18-24 hours before compound treatment, cells growing for 2-3 days in a flask were centrifuged at 200×g for 8 min, the media was aspirated, and fresh media was used to resuspend the cells. Cells were then counted, diluted with fresh media, and seeded at 650,000-750,000 cells/ml in 6-well plates, with 2 ml of volume per well.
Compounds to be tested were solubilized and stored in dimethyl sulfoxide (DMSO) at 10 mM. Compounds were first diluted in DMSO and then media so that the DMSO concentration was identical across treatments and the final concentration of DMSO was below 0.1% (typically 0.04%). Cells in each well of a 6-well plate were treated by adding 0.5 ml of fresh media containing varying concentrations of compounds to be tested—or only DMSO as a “no treatment” control.
Cells were harvested 24 hours after treatment by collecting all volume from each well into labeled microfuge tubes followed by centrifugation at 200×g for 8 min. Cells were washed in 1 ml of phosphate buffered saline (DPBS; Gibco 141190144) and then 0.5 ml of DPBS by centrifugation (as above) and aspiration. Cell pellets were resuspended by pipetting up-and-down in 100 microliters of ice cold RIPA buffer (Thermo, 89900) supplemented with 1× protease inhibitor cocktail and 1×EDTA (Pierce, 87786) and 1× phosphatase inhibitor cocktail (Pierce, 78420). Cell extracts were incubated on ice for 10 min and then centrifuged at 21,130×g for 20 min in a microfuge. Supernatants were collected and protein concentration for each sample was determined using a BCA kit (Thermo, 23225). Each sample was then denatured by adding 4×LDS buffer (Invitrogen, NP0008) to 1× followed by heating at 95° C. for 5 minutes.
Proteins were separated by electrophoresis using a XCell4 Surelock Midi-Cell apparatus (Invitrogen) and then transferred to PVDF membranes within iBlot 2 Transfer Stacks (Invitrogen, IB24001) using an iBlot 2 system (Invitrogen). Membranes were cut horizontally at a 50 kDa molecular weight marker and each piece of membrane was blocked in TBS-T+5% non-fat dry milk (NFDM) for 1-24 hours. Membranes were then incubated with antibody to TYK2 (Cell Signaling Technologies, 14193) or GAPDH (Cell Signaling Technologies, 5174; as loading control) in TBS-T+1% NFDM for 1 hour. Membranes were washed four times in TBS-T for 10 min each time, and then incubated with a HRP-conjugated secondary antibody (Cell Signaling Technologies, 7074) in TBS-T+1% NFDM for one hour. Membranes were washed four times for 10 min in TBS-T. Membranes were then incubated with reagents according to the SuperSignal West Femto Kit (Thermo, 34095) for 1 min at room temperature. Membranes were then imaged using a Gel Doc XR+ system (BioRad).
Captured images were processed using Image Lab software (BioRad). Using the volume tool, band intensities within rectangles of equal area were determined with the local subtraction method. The effects of compounds on TYK2 levels were related to the level of TYK2 from cells treated with only DMSO (no compound).

T1 sequence (P29597 whole entry): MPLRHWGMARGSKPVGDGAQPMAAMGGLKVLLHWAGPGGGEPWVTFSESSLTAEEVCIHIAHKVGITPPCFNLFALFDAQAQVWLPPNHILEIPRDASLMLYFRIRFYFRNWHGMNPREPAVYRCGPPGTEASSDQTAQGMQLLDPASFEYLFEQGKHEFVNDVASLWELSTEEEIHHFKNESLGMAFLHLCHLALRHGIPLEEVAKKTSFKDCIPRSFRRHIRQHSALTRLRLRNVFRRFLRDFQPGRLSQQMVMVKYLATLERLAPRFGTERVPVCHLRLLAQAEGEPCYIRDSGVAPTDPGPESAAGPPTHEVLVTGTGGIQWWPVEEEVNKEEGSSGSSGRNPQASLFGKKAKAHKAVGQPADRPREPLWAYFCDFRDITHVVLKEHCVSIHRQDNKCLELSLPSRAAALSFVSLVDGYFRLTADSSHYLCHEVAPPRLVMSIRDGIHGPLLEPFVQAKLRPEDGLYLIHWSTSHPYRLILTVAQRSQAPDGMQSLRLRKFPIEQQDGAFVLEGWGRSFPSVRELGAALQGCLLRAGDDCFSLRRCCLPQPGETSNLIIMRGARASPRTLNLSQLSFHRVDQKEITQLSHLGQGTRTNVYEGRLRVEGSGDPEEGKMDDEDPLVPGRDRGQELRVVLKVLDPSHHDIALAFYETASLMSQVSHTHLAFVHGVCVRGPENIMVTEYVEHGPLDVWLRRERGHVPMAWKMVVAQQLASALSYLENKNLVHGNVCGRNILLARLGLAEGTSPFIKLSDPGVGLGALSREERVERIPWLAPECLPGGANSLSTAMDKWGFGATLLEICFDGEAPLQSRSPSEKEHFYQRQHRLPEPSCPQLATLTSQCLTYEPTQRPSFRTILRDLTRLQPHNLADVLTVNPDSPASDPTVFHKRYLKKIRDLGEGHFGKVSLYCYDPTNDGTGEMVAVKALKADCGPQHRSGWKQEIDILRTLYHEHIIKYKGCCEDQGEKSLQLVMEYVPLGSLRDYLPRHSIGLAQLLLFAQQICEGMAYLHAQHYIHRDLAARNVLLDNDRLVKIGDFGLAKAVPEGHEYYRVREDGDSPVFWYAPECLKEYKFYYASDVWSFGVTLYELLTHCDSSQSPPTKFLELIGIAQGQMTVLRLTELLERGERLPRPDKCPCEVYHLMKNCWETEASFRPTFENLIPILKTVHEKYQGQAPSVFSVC

| SMILES | amount of TYK2 protein, normalized to GADPH, under competition with pomalidomide (FIG. 2B) |
| --- | --- |
| CNC(=O)c1nnc(NC(=O)CCN2CCC(C3CN(c4ccc5c(c4)C(=O)N(C4CCC(=O)NC4=O)C5=O)C3)CC2)cc1Nc1cccc(-c2ncn(C)n2)c1OC (stereo not shown) [PROTAC 1, 6-(3-(4-(1-(2-(2,6-Dioxopiperidin-3-yl)-1,3-dioxoisoindolin-5-yl)azetidin-3-yl)piperidin-1-yl)propanamido)-4-((2-methoxy-3-(1-methyl-1H-1,2,4-triazol-3-yl)phenyl)amino)-N-methylpyridazine-3-carboxamide] | reversal of the PROTAC effect; also recorded: significantly reduces extent of degradation |

Same assay, conditions: 24 hour treatment, compound alone; PROTAC 1 at 100 nM

| SMILES | amount of TYK2 protein, normalized to the amount of GADPH protein, detected in cell lysates (FIG. 2B) |
| --- | --- |
| CNC(=O)c1nnc(NC(=O)CCN2CCC(C3CN(c4ccc5c(c4)C(=O)N(C4CCC(=O)NC4=O)C5=O)C3)CC2)cc1Nc1cccc(-c2ncn(C)n2)c1OC (stereo not shown) [PROTAC 1, 6-(3-(4-(1-(2-(2,6-Dioxopiperidin-3-yl)-1,3-dioxoisoindolin-5-yl)azetidin-3-yl)piperidin-1-yl)propanamido)-4-((2-methoxy-3-(1-methyl-1H-1,2,4-triazol-3-yl)phenyl)amino)-N-methylpyridazine-3-carboxamide] | effective at 100 nM in reducing the amount of TYK2 protein; also recorded: shows degradation |
| Nc1cccc2c1C(=O)N(C1CCC(=O)NC1=O)C2=O (stereo not shown) [pomalidomide, reference compound] | does not significantly reduce the amount of TYK2 protein |

Same assay, conditions: MOLT-4 cells, 24 hours after treatment, TYK2 level related to DMSO-only cells

| Tyk2 Degradation Score | SMILES |
| --- | --- |
| + (25-50% degradation) | CNC(=O)c1nnc(NC(=O)CCN2CCC(C3CN(c4ccc5c(c4)C(=O)N(C4CCC(=O)NC4=O)C5=O)C3)CC2)cc1Nc1cccc(-c2ncn(C)n2)c1OC (stereo not shown) [PROTAC 1, 6-(3-(4-(1-(2-(2,6-Dioxopiperidin-3-yl)-1,3-dioxoisoindolin-5-yl)azetidin-3-yl)piperidin-1-yl)propanamido)-4-((2-methoxy-3-(1-methyl-1H-1,2,4-triazol-3-yl)phenyl)amino)-N-methylpyridazine-3-carboxamide] |
| — (< 25% degradation) | CNC(=O)c1nnc(NC(=O)CCN2CCN(c3ccc4c(c3)C(=O)N(C3CCC(=O)NC3=O)C4=O)CC2)cc1Nc1cccc(-c2ncn(C)n2)c1OC (stereo not shown) [PROTAC 2, 6-(3-(4-(2-(2,6-Dioxopiperidin-3-yl)-1,3-dioxoisoindolin-5-yl)piperazin-1-yl)propanamido)-4-((2-methoxy-3-(1-methyl-1H-1,2,4-triazol-3-yl)phenyl)amino)-N-methylpyridazine-3-carboxamide] |
| ++ (51-75% degradation) | CNC(=O)c1nnc(NC(=O)CCN2CCC(CC3CN(c4ccc5c(c4)C(=O)N(C4CCC(=O)NC4=O)C5=O)C3)CC2)cc1Nc1cccc(-c2ncn(C)n2)c1OC (stereo not shown) [PROTAC 3, 6-(3-(4-((1-(2-(2,6-Dioxopiperidin-3-yl)-1,3-dioxoisoindolin-5-yl)azetidin-3-yl)methyl)piperidin-1-yl)propanamido)-4-((2-methoxy-3-(1-methyl-1H-1,2,4-triazol-3-yl)phenyl)amino)-N-methylpyridazine-3-carboxamide] |
| + (25-50% degradation) | CNC(=O)c1nnc(NC(=O)CCN2CCN(c3cc(N4CCN(c5ccc6c(c5)C(=O)N(C5CCC(=O)NC5=O)C6=O)CC4)ncn3)CC2)cc1Nc1cccc(-c2ncn(C)n2)c1OC (stereo not shown) [PROTAC 4, 6-(3-(4-(6-(4-(2-(2,6-Dioxopiperidin-3-yl)-1,3-dioxoisoindolin-5-yl)piperazin-1-yl)pyrimidin-4-yl)piperazin-1-yl)propanamido)-4-((2-methoxy-3-(1-methyl-1H-1,2,4-triazol-3-yl)phenyl)amino)-N-methylpyridazine-3-carboxamide] |
| + (25-50% degradation) | CNC(=O)c1nnc(NC(=O)CCN2CCC(COCC3CCN(c4ccc5c(c4)C(=O)N(C4CCC(=O)NC4=O)C5=O)CC3)CC2)cc1Nc1cccc(-c2ncn(C)n2)c1OC (stereo not shown) [PROTAC 5, 6-(3-(4-(((1-(2-(2,6-Dioxopiperidin-3-yl)-1,3-dioxoisoindolin-5-yl)piperidin-4-yl)methoxy)methyl)piperidin-1-yl)propanamido)-4-((2-methoxy-3-(1-methyl-1H-1,2,4-triazol-3-yl)phenyl)amino)-N-methylpyridazine-3-carboxamide] |
| ++ (51-75% degradation) | CNC(=O)c1nnc(NC(=O)CCNCC2CCN(c3ccc4c(c3)C(=O)N(C3CCC(=O)NC3=O)C4=O)CC2)cc1Nc1cccc(-c2ncn(C)n2)c1OC (stereo not shown) [PROTAC 6, 6-(3-(((1-(2-(2,6-Dioxopiperidin-3-yl)-1,3-dioxoisoindolin-5-yl)piperidin-4-yl)methyl)amino)propanamido)-4-((2-methoxy-3-(1-methyl-1H-1,2,4-triazol-3-yl)phenyl)amino)-N-methylpyridazine-3-carboxamide] |
| +++ (>75% degradation) | CNC(=O)c1nnc(NC(=O)CCN2CC(CN3CCN(C4CCN(c5ccc6c(c5)C(=O)N(C5CCC(=O)NC5=O)C6=O)CC4)CC3)C2)cc1Nc1cccc(-c2ncn(C)n2)c1OC (stereo not shown) [PROTAC 7, 6-(3-(3-((4-(1-(2-(2,6-Dioxopiperidin-3-yl)-1,3-dioxoisoindolin-5-yl)piperidin-4-yl)piperazin-1-yl)methyl)azetidin-1-yl)propanamido)-4-((2-methoxy-3-(1-methyl-1H-1,2,4-triazol-3-yl)phenyl)amino)-N-methylpyridazine-3-carboxamide] |
| +++ (>75% degradation) | CNC(=O)c1nnc(NC(=O)CCN2CCC(CCCN3CCN(c4ccc5c(c4)C(=O)N(C4CCC(=O)NC4=O)C5=O)CC3)CC2)cc1Nc1cccc(-c2ncn(C)n2)c1OC (stereo not shown) [PROTAC 8, 6-(3-(4-(3-(4-(2-(2,6-Dioxopiperidin-3-yl)-1,3-dioxoisoindolin-5-yl)piperazin-1-yl)propyl)piperidin-1-yl)propanamido)-4-((2-methoxy-3-(1-methyl-1H-1,2,4-triazol-3-yl)phenyl)amino)-N-methylpyridazine-3-carboxamide] |
| ++ (51-75% degradation) | CNC(=O)c1nnc(NC(=O)CCN2CCC(CCC3CCN(c4ccc(Oc5ccc6c(c5)C(=O)N(C5CCC(=O)NC5=O)C6=O)cc4)CC3)CC2)cc1Nc1cccc(-c2ncn(C)n2)c1OC (stereo not shown) [PROTAC 9, 6-(3-(4-(2-(1-(4-((2-(2,6-Dioxopiperidin-3-yl)-1,3-dioxoisoindolin-5-yl)oxy)phenyl)piperidin-4-yl)ethyl)piperidin-1-yl)propanamido)-4-((2-methoxy-3-(1-methyl-1H-1,2,4-triazol-3-yl)phenyl)amino)-N-methylpyridazine-3-carboxamide] |
| ++ (51-75% degradation) | CNC(=O)c1nnc(NC(=O)CCN2CCC(CNc3ccc4c(c3)C(=O)N(C3CCC(=O)NC3=O)C4=O)CC2)cc1Nc1cccc(-c2ncn(C)n2)c1OC (stereo not shown) [PROTAC 10, 6-(3-(4-(((2-(2,6-Dioxopiperidin-3-yl)-1,3-dioxoisoindolin-5-yl)amino)methyl)piperidin-1-yl)propanamido)-4-((2-methoxy-3-(1-methyl-1H-1,2,4-triazol-3-yl)phenyl)amino)-N-methylpyridazine-3-carboxamide] |
